Data on one compound can be found in US7351431B2, “Freeze-dried pharmaceutical preparation” (Dainippon Sumitomo Pharma Co., Ltd., priority 2001, dated 2008).

The structures appear in SMILES notation.

The nature of this series: Content of drug solution in 2-methyl-2-propanol during stirring by Polytron or stirrer. Type of series: physicochemical. Conditions: about 40° C.; for Content [vs. 0 h %]: about 4.0 mg/mL in 2-methyl-2-propanol. The method, then:
Then, whether the content and analogous substance are affected by stirring in a homomixer was considered. To cis[((1R,2R)-1,2-cyclohexanediamine-N,N′)bis(tetradecanoyloxy)]platinum(II) monohydrate was added 2-methyl-2-propanol to a liquid formulation concentration of about 4.0 mg/mL. This was prepared in two Erlenmeyer flasks. One Erlenmeyer flask was stirred with a stirrer at a liquid temperature of about 40° C. after ultrasonication. The other Erlenmeyer flask was stirred at about 10000 rpm at a liquid temperature of about 40° C. using Polytron pulverizer (pulverization diameter G8) manufactured by IKA that pulverizes and dissolves by the same mechanism as a homogenizer. The stirring was continued with the time point when the bulk was dissolved as 0 hr. The drug solution was sampled with the lapse of time and the dissolution state was observed and the content and analogous substances were measured.

Regarding `CCCCCCCCCCCCCC(=O)[O][Pt]1([O]C(=O)CCCCCCCCCCCCC)[NH][C@@H]2CCCC[C@H]2[NH]1` [bulk, cis[((1R,2R)-1,2-cyclohexanediamine-N,N′)bis(tetradecanoyloxy)]platinum(II) monohydrate], the “Content [vs. 0 h %]” value is listed as 100% (Polytron, stirring time 0); 99.5% (Polytron, stirring time 0.5 h); 99.4% (Polytron, stirring time 1 h); 100.9% (Polytron, stirring time 2 h); 100% (stirrer, stirring time 0); 100.9% (stirrer, stirring time 0.5 h). Besides, the “Content [vs. 0 h %]” value is, setting by setting: (stirrer, stirring time 1 h) 100.2%; (stirrer, stirring time 2 h) 103.1%. The “Content and analogous substances with the lapse of stirring time” value (any stirring method (Polytron or stirrer)) is given as “showed no change”.
